A short description of the data set: log p. It counts as physicochemical.

As for `CC1CNN(c2c(-c3ccccc3Cl)c(Cl)nc3ncnn23)CC1C` (stereo not drawn) [Example 278], the log p was found to be 3.3. `CC1CCN(c2c(-c3ccccc3C(F)(F)F)c(Cl)nc3ncnn23)CC1` [Example 279] returned a log p of 3.8.

With `CC1CCN(c2c(-c3c(F)cccc3Cl)c(C#N)nc3ncnn23)CC1` [Example 280], the log p is 3.37.

Values taken from patent US20090149455A1, “Use of Triazolopyrimidines for Controlling Plant Diseases on Legumes” (Bayer CropScience AG, priority 2005, published 2009).
